# Experimental data as given in patent publication US7008636B2, “2,3,5-substituted biphenyls useful in the treatment of insulin resistance and hyperglycemia” (Wyeth, priority 1998, dated 2006).
# Legend:
# [1] = molecular target: T1, recombinant, human protein tyrosine phosphatase (PTP) 1B (hPTP1B) (Homo sapiens, UniProt P18031); test: Inhibition of tri-phosphorylated insulin receptor dodecaphosphopeptide dephosphorylation by hPTP1B; assay type: biochemical; settings: 50 μM IR triphosphopeptide substrate, 5 min preincubation and 5 min reaction at 37° C., malachite green-ammonium molybdate phosphate detection
# T1 construct: made in house
# T1 sequence (P18031 1-435): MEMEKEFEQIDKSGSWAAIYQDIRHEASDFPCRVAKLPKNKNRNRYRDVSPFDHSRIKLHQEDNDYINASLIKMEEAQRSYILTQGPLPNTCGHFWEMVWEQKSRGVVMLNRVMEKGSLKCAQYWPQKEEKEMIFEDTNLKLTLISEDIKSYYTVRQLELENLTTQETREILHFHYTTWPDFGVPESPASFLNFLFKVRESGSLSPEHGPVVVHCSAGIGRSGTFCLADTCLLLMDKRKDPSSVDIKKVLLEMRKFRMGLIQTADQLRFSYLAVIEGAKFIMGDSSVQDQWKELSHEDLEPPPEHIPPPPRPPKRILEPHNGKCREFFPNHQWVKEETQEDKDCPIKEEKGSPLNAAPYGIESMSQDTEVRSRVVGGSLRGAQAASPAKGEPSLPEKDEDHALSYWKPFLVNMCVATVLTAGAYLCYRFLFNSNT
Structure (SMILES),melting point,IC50 [1] [µM]
"CCCCCCCCCCCCNC(=O)c1cc(-c2ccccc2)c(OCC(=O)O)c(-c2ccccc2)c1 [Example 8, (5′-Dodecylcarbamoyl-[1,1′;3′,1″]terphenyl-2′-yloxy)-acetic acid]",150 to 153 °C,0.195
"CCCCCCCCCCCCNC(=O)c1cc(-c2ccc(OC)cc2)c(OCC(=O)O)c(-c2cccc(Cl)c2)c1 [Example 10, (3-Chloro-5′-dodecylcarbamoyl-4″-methoxy-[1,1°;3′]terphenyl-2′-yloxy)-acetic acid]",114 to 117 °C,0.102
"CC(C)(C)c1ccc(COCCCCCCNC(=O)c2cc(-c3cccc(C(F)(F)F)c3)c(OCC(=O)O)c(-c3cccc(C(F)(F)F)c3)c2)cc1 [Example 13, {5′-[6-(4-tert-Butyl-benzyloxy)-hexylcarbamoyl]-3,3″-bis-trifluoromethyl-[1,1′;3′,1″]terphenyl-2′-yloxy}-acetic acid]",156 to 158 °C,0.32
"O=C(O)COc1c(-c2cccc(C(F)(F)F)c2)cc(C(=O)NCCCCCCOCc2ccc(OCc3ccccc3)cc2)cc1-c1cccc(C(F)(F)F)c1 [Example 14, {5′-[6-(4-Benzyloxy-benzyloxy)-hexylcarbamoyl]-3,3″-bis-trifluoromethyl-[1,1′;3′1″]terphenyl-2′-yloxy}-acetic acid]",127 to 130 °C,0.366
"COc1ccc(-c2cc(C(=O)N(C)CCCCCCCCc3ccccc3)cc(-c3cccc(Cl)c3)c2OCC(=O)O)cc1 [Example 16, {3″-Chloro-4-methoxy-5′-[methyl-(8-phenyl-octyl)-carbamoyl]-[1,1′;3′, 1″]terphenyl-2′-yloxy}-acetic acid]",66.8 to 67.5 °C,0.343
"O=C(O)COc1c(Br)cc(C(=O)NCCCc2ccccc2)cc1-c1ccccc1F [Example 73, [3-Bromo-2′-fluoro-5-(3-phenyl-propylcarbamoyl)-biphenyl-2-yloxy]acetic acid]",> 90 °C (dec.),–
"COc1ccc(-c2cc(C(=O)NCCCCCCCCc3ccccc3)cc(-c3ccccc3F)c2OCC(=O)O)cc1 [Example 76, [2-Fluoro-4″-methoxy-5′-(8-phenyl-octylcarbamoyl)-[1,1′;3′,1″]-terphenyl-2′-yloxy]acetic acid]",> 84 °C (dec.),–
"O=C(O)COc1c(Br)cc(C(=O)NCCCCCCCCc2ccccc2)cc1-c1ccccc1F [Example 77, [3-Bromo-2′-fluoro-5-(8-phenyl-octylcarbamoyl)-biphenyl-2-yloxy]acetic acid]",> 79 °C (dec.),–
"O=C(O)COc1c(Br)cc(C(=O)NCCCCCCc2ccccc2)cc1-c1ccccc1F [Example 79, [3-Bromo-2′-fluoro-5-(6-phenyl-hexylcarbamoyl)-biphenyl-2-yloxy]acetic acid]",> 84 °C (dec.),–
"CCCCCCCCCCCCNC(=O)c1cc(Br)c(OCCn2cnnn2)c(-c2cccc(OC)c2)c1 [Example 138, 5-Bromo-6-(2-tetrazol-1-yl-ethoxy)-3′-methoxy-biphenyl-3-carboxylic acid dodecylamide]",100 to 101 °C,–
"CCCCCCCCCCCCNC(=O)c1cc(Br)c(OCCn2ccnn2)c(-c2cccc(C(F)(F)F)c2)c1 [Example 181, 5-Bromo-6-(2-[1,2,3]triazol-1-yl-ethoxy)-3′-trifluoromethyl-biphenyl-3-carboxylic acid dodecylamide]",70.5 to 72.5 °C,–
"CCCCCCCCCCCCNC(=O)c1cc(Br)c(OCCNC(N)=O)c(-c2cccc(C(F)(F)F)c2)c1 [Example 187, 5-Bromo-3′-trifluoromethyl-6-(2-ureido-ethoxy)-biphenyl-3-carboxylic acid dodecylamide]",122.5 to 125.1 °C,–

# Second part, the compound after the results:
melting point,IC50 [1] [µM],Structure (SMILES)
65 to 68 °C,0.165,"CCCCCCCCCCCCNC(=O)c1cc(-c2ccc(OC)cc2)c(OCC(=O)O)c(-c2ccc(OC)cc2)c1 [Example 9, (5′-Dodecylcarbamoyl-4,4″-dimethoxy-[1,1′;3′,1″]terphenyl-2′-yloxy)-acetic acid]"
57 to 58 °C,0.115,"CCCCCCCCCCCCNC(=O)c1cc(-c2cccc(OC)c2)c(OCC(=O)O)c(-c2cccc(OC)c2)c1 [Example 11, (5′-Dodecylcarbamoyl-3,3″-dimethoxy-[1,1′;3′1″]terphenyl-2′-yloxy)-acetic acid]"
79.2 to 80.5 °C,0.186,"COc1ccc(-c2cc(C(=O)NCCCCCCCCc3ccccc3)cc(-c3cccc(Cl)c3)c2OCC(=O)O)cc1 [Example 15, [3″-Chloro-4-methoxy-5′-(8-phenyl-octylcarbamoyl)-[1,1′;3′,1″]terphenyl-2′-yloxy]-acetic acid]"
67.3 to 68.7 °C,0.284,"COc1cccc(-c2cc(C(=O)NCCCCCCCCc3ccccc3)cc(-c3cccc(OC)c3OCC(=O)O)c2)c1 [Example 17, [3,3″-Dimethoxy-5′-(8-phenyl-octylcarbamoyl)-[1,1′;3′,1″]terphenyl-2-yloxy]-acetic acid]"
74.7 to 75.9 °C,0.71,"O=C(O)COCCOc1c(-c2cccc(C(F)(F)F)c2)cc(C(=O)NCCCCCCc2ccccc2)cc1-c1cccc(C(F)(F)F)c1 [Example 18, {2-[5′-(6-Phenyl-hexylcarbamoyl)-3,3″-bis-trifluoromethyl-[1,1′;3′,1″]terphenyl-2′-yloxy]-ethoxy}acetic acid]"
> 97 °C (dec.),–,"COc1ccc(-c2cc(C(=O)NCCCC3CCCC3)cc(-c3ccccc3F)c2OCC(=O)O)cc1 [Example 74, [5′-(3-Cyclopentyl-propylcarbamoyl)-2-fluoro-4″-methoxy-[1,1′;3′,1″]-terphenyl-2′-yloxy]acetic acid]"
> 127 °C (dec.),–,"O=C(O)COc1c(Br)cc(C(=O)NCCCC2CCCC2)cc1-c1ccccc1F [Example 75, [3-Bromo-5-(3-cyclopentyl-propylcarbamoyl)-2′-fluoro-biphenyl-2-yloxy]acetic acid]"
> 72 °C (dec.),–,"COc1ccc(-c2cc(C(=O)NCCCCCCc3ccccc3)cc(-c3ccccc3F)c2OCC(=O)O)cc1 [Example 78, [2-Fluoro-4″-methoxy-5′-(6-phenyl-hexylcarbamoyl)-[1,1′;3′,1″]-terphenyl-2′-yloxy]acetic acid]"
153 to 159 °C,–,"COc1ccc(-c2cc(C(=O)NCCCCCCc3ccccc3)cc(-c3cccc(C(F)(F)F)c3)c2OCC(=O)O)cc1 [Example 157, [4″-Methoxy-5′-(6-phenyl-hexylcarbamoyl)-3-trifluoromethyl-[1,1′;3′,1″]terphenyl-2′-yloxy]acetic acid]"
75.6 to 76.2 °C,–,"CCCCCCCCCCCCNC(=O)c1cc(Br)c(OCCn2ncnn2)c(-c2cccc(C(F)(F)F)c2)c1 [Example 182, 5-Bromo-6-(2-tetrazol-2-yl-ethoxy)-3′-trifluoromethyl-biphenyl-3-carboxylic acid dodecylamide]"
91.5 to 92.6 °C,–,"CCCCCCCCCCCCNC(=O)c1cc(Br)c(OCCn2cnnn2)c(-c2cccc(C(F)(F)F)c2)c1 [Example 183, 5-Bromo-6-(2-tetrazol-1-yl-ethoxy)-3′-trifluoromethyl-biphenyl-3-carboxylic acid dodecylamide]"
79.6 to 80.5 °C,–,"CCCCCCCCCCCCNC(=O)c1cc(Br)c(OCCNC(=O)OC)c(-c2cccc(C(F)(F)F)c2)c1 [Example 188, [2-(3-Bromo-5-dodecylcarbamoyl-3′-trifluoromethyl-biphenyl-2-yloxy)-ethyl]-carbamic acid methyl ester]"
